One data set has as its system cervical carcinoma. To be noted: advanced or recurrent cervical carcinoma, limited owing to chemoresistance; cited from earlier work. An excerpt: According to the WHO, cervical cancer was the fourth most common cancer among women globally in 2022, with an estimated 660,000 new cases. Cervical cancer remains a considerable health threat, with 94% of the 350,000 deaths occurring in low- and middle-income countries. Chemotherapy, particularly cisplatin, is the primary treatment for advanced or recurrent cervical carcinoma. However, the response rate is limited to approximately 23% owing to chemoresistance. In addition, carboplatin, another platinum-based chemotherapy, is often used as an alternative for patients intolerant to c ...

The test system of data set [1] is HeLa cells.
In data set [2] the test system is HeLa cells. Kind of data set: G2/M phase cell cycle arrest by flow cytometry (PI). In kind it is cell-based. The following applies: 6 µM, 24 h. The procedure: HeLa cells (3.5 × 10^5 cells/well) were seeded into 6-well plates and grown to 80–90% confluence. […] Both medium and floating cells were collected, washed with PBS three times, and fixed in 70% cold ethanol. Further, cells were washed again with PBS and stained with a solution containing PI (1 µg/mL) and RNase A (1 µg/mL) at 37 °C for 30 min. The stained cells were analyzed using a CytoFLEX flow cytometer (Beckman Coulter, Brea, CA, USA), and data were processed with FlowJo v10.10 [10].
(Flow cytometry measures light scatter and fluorescence of single cells or particles in a stream.)

Data set [3] has as its system HeLa cells. Kind of data set: Morphological assessment by phase contrast microscopy. The format is cell-based. The following applies: 6 µM, 30 h.
For data set [4], the system named is HeLa cells. Kind of data set: Fluorescence apoptosis assay (LIVE/DEAD kit). The format is cell-based. The following applies: 6 µM, 24 h, LIVE/DEAD staining.
Another data set deals with T1, PLK1 (Homo sapiens, UniProt P53350).
T1 construct: cells were lysed and total proteins were extracted for immunoblot analysis of PLK1 expression; endogenous in cells; host or cells: HeLa
T1 sequence (P53350 whole entry): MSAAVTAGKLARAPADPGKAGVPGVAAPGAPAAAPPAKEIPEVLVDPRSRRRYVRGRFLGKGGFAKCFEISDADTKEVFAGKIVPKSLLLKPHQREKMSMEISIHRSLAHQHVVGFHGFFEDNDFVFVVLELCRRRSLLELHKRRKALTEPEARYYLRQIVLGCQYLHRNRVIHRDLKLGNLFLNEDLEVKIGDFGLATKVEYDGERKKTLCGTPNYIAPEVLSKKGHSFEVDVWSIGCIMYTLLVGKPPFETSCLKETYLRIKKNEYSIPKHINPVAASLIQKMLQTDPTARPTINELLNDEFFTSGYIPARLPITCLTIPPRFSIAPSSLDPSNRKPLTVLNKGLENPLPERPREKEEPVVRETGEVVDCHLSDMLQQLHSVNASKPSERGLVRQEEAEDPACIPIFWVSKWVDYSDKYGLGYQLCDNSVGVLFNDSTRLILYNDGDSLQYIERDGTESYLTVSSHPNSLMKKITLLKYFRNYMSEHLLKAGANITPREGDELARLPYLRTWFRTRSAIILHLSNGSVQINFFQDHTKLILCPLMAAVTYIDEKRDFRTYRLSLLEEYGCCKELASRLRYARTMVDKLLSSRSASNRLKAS
Nature of the data set: PLK1 protein degradation in HeLa cells by immunoblotting. The format is cell-based. To be noted: NC1 24 h, 5 µM MG132 for 8 h. On the procedure: HeLa cells were seeded in 12-well plates with 1 × 10^5 cells per well and allowed to stay for overnight. Various concentrations (0, 1, 2, 3, 4, and 5 µM) of NC1 were added to HeLa cells in 12-well plates and incubated for 24 h. An amount of 5 µM of MG132 was added to the cells and incubated for 8 h to evaluate the proteasome inhibition. before harvesting. Following treatment, cells were lysed and total proteins were extracted for immunoblot analysis of PLK1 expression. Protein samples were separated by SDS-PAGE and transferred onto PVDF membranes. PLK1 was detected using a mouse-derived monoclonal antibody, with β-actin used as an internal control to ensure equal loading.

In data set [5] the test system is HeLa xenograft cervical cancer. Kind of data set: In vivo antitumor activity, HeLa xenograft mouse model. The following applies: nude mice, 4 mg/kg tail vein every 3-4 d for 29 d, n = 4. On the procedure: The antitumor efficacy of NC1 was assessed in a HeLa xenograft mouse model, as reported. Briefly, 5 × 10^6 HeLa cells were subcutaneously injected into the right thigh region of immunodeficient nude mice. When tumors reached an approximate volume of 100 mm^3 (calculated using the formula: volume = 0.52 × length × width^2), mice were randomly assigned to treatment groups. NC1 (4 mg/kg) or PBS (vehicle control) was administered via tail vein injection at intervals of 3–4 days over a period of 29 days. Tumor volumes were measured regularly using calipers. All animal procedures were approved by the KBSI Institutional Animal Care and Use Committee (Protocol No. KBSI-IACUC-24-15) and were conducted in accordance with institutional and governmental regulations.

A further data set addresses T2, PLK1 PBD (Mus musculus, UniProt Q07832).
T2 construct: (Swiss Prot entry Q07832, residues 367–603); 6XHis (N); TEV protease cleavage site (N); made in house; pET28a vector and IPTG induction point to E. coli (inferred)
Kind of data set: Isothermal titration calorimetry (ITC) of PLK1 PBD with NC1. To be noted: 25 °C, PLK1 PBD 20 µM in cell, NC1 200 µM in syringe, 20 mM HEPES pH 7.5, 200 mM NaCl, 5% DMSO, one-site model, read-out: Kd, binding affinity between NC1 and PLK1 PBD. The procedure: The mouse PLK1 in Polo box domain (PBD) (Swiss Prot entry Q07832, residues 367–603) was expressed as a recombinant protein containing an N-terminal 6XHis tag in the pET28a vector and a tobacco etch virus (TEV) protease cleavage was engineered between the affinity tag and PLK1 PBD. PLK1 PBD protein expression was induced by adding 0.1 mM IPTG and incubating the cells overnight at 18 °C. Following induction, the cells were collected by centrifugation and lysed via sonication after being resuspended in buffer composed of 20 mM HEPES (pH 7.5), 200 mM NaCl, 2 mM β-mercaptoethanol, and 1 mM PMSF. The lysate was clarified by centrifugation at 18,000 rpm for 40 min at 4 °C. The resulting supernatant was subjected to immobilized metal affinity chromatography (IMAC) using a Ni^2+-NTA HiTrap column (GE Healthcare), and the protein was eluted using an imidazole gradient ranging from 25 to 500 mM. For further purification, size-exclusion chromatography was conducted on a HiLoad 26/60 Superdex-75 column equilibrated with 20 mM HEPES (pH 7.2), 150 mM NaCl, and 2 mM DTT. PLK1 PBD protein was purified the purity of the proteins at each stage was checked on 15% SDS-PAGE. The purified PLK1 PBD protein was concentrated to 10 mg/mL using a VIVASPIN20 (Sartorius, Göttingen, Germany) concentrator and stored at −80 °C until use. […]
In general terms: Isothermal titration calorimetry measures the heat released or taken up as one component is titrated into another.

For data set [6], the target named is T3, NC1 (Arg12-Ahx-PLH(n-octylphenyl)SpT PROTAC peptide) (synthetic construct).
T3 chain: RRRRRRRRRRRR[Ahx]PLH(n‑octylphenyl)S[pT]-NH2
Nature of the data set: ITC.

Non-standard residues stand in square brackets, D forms with d. Residues, ends and D or L forms follow the SMILES beside them. No end group written: not given here. *: point of attachment. n‑octylphenyl = n-octylphenyl group on the histidine (alkylphenyl side chain at His); His(π-(CH2)8Ph) = N[C@@H](Cc1cncn1CCCCCCCCc1ccccc1)C(=O)O; pT = C[C@@H](OP(=O)(O)O)[C@H](N)C(=O)O; Cbz = O=C(OCc1ccccc1)*; Ahx = NCCCCCC(=O)O

For orientation: IC50 means the point on the concentration scale where inhibition reaches its midpoint. One may read the Kd as a measure of binding affinity in units of concentration.

On to `N.N.[Cl][Pt][Cl]` [cisplatin], for which, in the data set with cervical carcinoma, the Response rate result was “approximately 23%”.
PLH(n-octylphenyl)SpT [4j]: the “Effect on cell viability” value in the data set with HeLa cells [1] (MTT, 24 h, up to 12 µM) was “did not significantly affect cell viability”. Besides, in the data set with HeLa cells [2], the G1 cell population is reported as 75.88, the G2/M cell population was determined as 14.68, the “Increase in G2/M cell population compared with the control” value turned out to be 2.38% and the S cell population was determined as 5.47. The SubG1 cell population with HeLa cells [2] was determined as 3.97. For the same molecule, in the data set on HeLa cells [3], the “Morphological changes of HeLa cells” value is “did not induce notable morphological changes”. For the same molecule, the “Apoptotic (dead, red) cells in fluorescence images” value in the data set on HeLa cells [4] is “few apoptotic red cells”.
For `CC(C)C[C@@H](C=O)NC(=O)[C@H](CC(C)C)NC(=O)[C@H](CC(C)C)NC(=O)OCc1ccccc1` [MG132] (Cbz-Leu-Leu-Leu-aldehyde), the “Effect of proteasome inhibitor co-treatment on NC1-induced PLK1 degradation” value at PLK1 is reported as “significantly reduced degradation”.
Take `CC(C)C[C@H](NC(=O)[C@@H]1CCCN1C(=O)CCCCCNC(=O)[C@H](CCCNC(=N)N)NC(=O)[C@H](CCCNC(=N)N)NC(=O)[C@H](CCCNC(=N)N)NC(=O)[C@H](CCCNC(=N)N)NC(=O)[C@H](CCCNC(=N)N)NC(=O)[C@H](CCCNC(=N)N)NC(=O)[C@H](CCCNC(=N)N)NC(=O)[C@H](CCCNC(=N)N)NC(=O)[C@H](CCCNC(=N)N)NC(=O)[C@H](CCCNC(=N)N)NC(=O)[C@H](CCCNC(=N)N)NC(=O)[C@@H](N)CCCNC(=N)N)C(=O)N[C@@H](Cc1cncn1CCCCCCCCc1ccccc1)C(=O)N[C@@H](CO)C(=O)N[C@H](C(N)=O)[C@@H](C)OP(=O)(O)O` [NC1] (H-RRRRRRRRRRRR[Ahx]PL[His(π-(CH2)8Ph)]S[pT]-NH2): the “Body weight of tumor-bearing mice” value in data set [5] is on record as “remained constant”. Also, the IC50 with HeLa cells [1] (read-out: IC50 for cancer cell viability, MTT, 24 h) came out at 5.23 µM. The Kd at PLK1 PBD worked out at 6.06 µM.

B1: PLK1 367-603 (protein)
chain: NEAIECHLSDLLQQLTSVNASKPSERGLVRQEEAEDPACIPIFWVSKWVDYSDKYGLGYQLCDNSVGVLFNDSTRLILYNDGDSLQYIERDGTESYLTVSSHPNSLMKKITLLNYFRNYMSEHLLKAGANITPREGDELARLPYLRTWFRTRSAIILHLSNGTVQINFFQDHTKLILCPLMAAVTYINEKRDFQTYRLSLLEEYGCCKELASRLRYARTMVDKLLSSRSASNRLKAS
In turn, B1 registered a Kd in data set [6] of 6.06 µM.

Values taken from article PMC12389170, “N-Degron-Based PROTAC Targeting PLK1: A Potential Therapeutic Strategy for Cervical Cancer” (Pharmaceutics, 2025).
